From publication PMC4785065 (Bioorganic & medicinal chemistry letters, 2016)

Molecular target: human topoisomerase IIα (Homo sapiens, UniProt P11388)
Experiment: DNA cleavage inhibition assay
Format: biochemical

Chain of human topoisomerase IIα (P11388 whole entry): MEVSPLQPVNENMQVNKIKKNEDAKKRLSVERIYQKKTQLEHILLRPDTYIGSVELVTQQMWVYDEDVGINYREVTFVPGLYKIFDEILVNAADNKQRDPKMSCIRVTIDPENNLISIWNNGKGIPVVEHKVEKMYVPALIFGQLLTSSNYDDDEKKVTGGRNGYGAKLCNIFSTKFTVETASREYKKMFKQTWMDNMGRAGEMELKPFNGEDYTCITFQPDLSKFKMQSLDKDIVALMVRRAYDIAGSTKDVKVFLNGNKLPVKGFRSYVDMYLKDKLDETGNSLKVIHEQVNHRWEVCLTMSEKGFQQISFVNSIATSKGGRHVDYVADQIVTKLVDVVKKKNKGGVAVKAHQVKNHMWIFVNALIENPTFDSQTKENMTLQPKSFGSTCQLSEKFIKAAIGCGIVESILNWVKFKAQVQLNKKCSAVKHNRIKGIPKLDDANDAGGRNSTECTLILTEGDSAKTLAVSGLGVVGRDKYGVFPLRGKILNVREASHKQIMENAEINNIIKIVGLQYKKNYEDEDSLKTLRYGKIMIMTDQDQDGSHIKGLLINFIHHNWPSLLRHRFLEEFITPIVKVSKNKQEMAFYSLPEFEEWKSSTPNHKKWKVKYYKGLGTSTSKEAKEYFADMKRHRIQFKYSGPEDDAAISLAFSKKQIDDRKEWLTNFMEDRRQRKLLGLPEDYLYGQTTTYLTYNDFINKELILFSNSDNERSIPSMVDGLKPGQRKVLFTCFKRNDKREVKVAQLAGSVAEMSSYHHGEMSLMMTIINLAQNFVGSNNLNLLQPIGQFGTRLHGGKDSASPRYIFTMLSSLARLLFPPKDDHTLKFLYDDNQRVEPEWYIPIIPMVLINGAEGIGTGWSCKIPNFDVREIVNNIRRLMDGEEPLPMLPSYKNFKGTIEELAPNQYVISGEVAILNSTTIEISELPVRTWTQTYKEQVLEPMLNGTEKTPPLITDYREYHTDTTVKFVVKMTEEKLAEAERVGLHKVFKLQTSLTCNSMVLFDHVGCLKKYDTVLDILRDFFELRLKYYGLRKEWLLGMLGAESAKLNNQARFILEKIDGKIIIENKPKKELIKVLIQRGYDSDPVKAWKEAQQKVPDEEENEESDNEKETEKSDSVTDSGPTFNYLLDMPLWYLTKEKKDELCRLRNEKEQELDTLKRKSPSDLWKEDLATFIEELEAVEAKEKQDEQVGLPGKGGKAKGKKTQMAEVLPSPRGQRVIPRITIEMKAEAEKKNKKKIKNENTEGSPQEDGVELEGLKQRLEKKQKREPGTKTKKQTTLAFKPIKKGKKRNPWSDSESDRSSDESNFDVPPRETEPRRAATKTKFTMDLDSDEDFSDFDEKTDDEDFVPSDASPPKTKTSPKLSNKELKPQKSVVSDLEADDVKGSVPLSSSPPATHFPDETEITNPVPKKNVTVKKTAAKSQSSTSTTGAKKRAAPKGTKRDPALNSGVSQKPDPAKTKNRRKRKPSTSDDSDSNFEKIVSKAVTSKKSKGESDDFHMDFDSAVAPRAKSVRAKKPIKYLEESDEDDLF

For `Cc1c2ccncc2c(C)c2c1[nH]c1ccccc12` [ET, 5,11-dimethyl-6H-pyrido[4,3-b]carbazole], the IC50 was greater than 200 µM.
